Data taken from PubChem BioAssay AID180 (DTP/NCI, 2004).
Where “and” joins values, the source holds several entries; their conditions need not be identical. Equal values may be shown once.

Test system: BDF1 mice, Adenocarcinoma 755 s.c., tumor weight T/C
Test: NCI In Vivo Anticancer Drug Screen. Data for tumor model Adenocarcinoma 755 (subcutaneous) in B6D2F1 (BDF1) mice
Details: endpoint: mean tumor weight, higher = larger tumour
Outline: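 Readout: T/C, i.e. treated-group measurement over vehicle-control measurement. Endpoint is survival or tumor size in tumor-bearing mice given compound.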

With `Ic1ncnc2nc[nH]c12` the T/C (dose: 2.5 mg/kg/injection, schedule: Q01DX011 (ip), vehicle: carboxymethylcellulose (CMC)) was 90 % of control, the T/C (dose: 3.2 mg/kg/injection, schedule: Q01DX011 (oral), vehicle: carboxymethylcellulose (CMC)) was 78 % of control and the T/C (dose: 5.0 mg/kg/injection, schedule: Q01DX011 (ip), vehicle: carboxymethylcellulose (CMC)) was 90 % of control. The T/C (dose: 7.5 mg/kg/injection, schedule: Q01DX011 (oral), vehicle: carboxymethylcellulose (CMC)) was 41 % of control, the T/C (dose: 15.0 mg/kg/injection, schedule: Q01DX011 (oral), vehicle: carboxymethylcellulose (CMC)) was 14 % of control and the T/C (dose: 62.5 mg/kg/injection, schedule: Q01DX011 (ip), vehicle: carboxymethylcellulose (CMC)) was 21 % of control.
For `COc1cc(C(=O)O)nc(N)n1`, the T/C (dose: 15.0 mg/kg/injection, schedule: Q01DX011 (ip), vehicle: saline) was 111 % of control, the T/C (dose: 125.0 mg/kg/injection, schedule: Q01DX011 (ip), vehicle: saline) was 100 % of control and the T/C (dose: 250.0 mg/kg/injection, schedule: Q01DX011 (ip), vehicle: saline) was 161 % of control.
`CC(=O)OCC(=O)[C@@]1(O)CC[C@H]2[C@@H]3CCC4=CC(=O)CC[C@]4(C)[C@H]3[C@@H](O)C[C@@]21C` was tested, and the T/C (dose: 1.13 mg/kg/injection, schedule: Q01DX011 (sc), vehicle: steriod suspending solution) was 225 % of control, the T/C (dose: 2.25 mg/kg/injection, schedule: Q01DX011 (sc), vehicle: steriod suspending solution) was 109 % of control and the T/C (dose: 2.5 mg/kg/injection, schedule: Q01DX011 (ip), vehicle: steriod suspending solution) was 60 % of control. For the same compound, the T/C (dose: 3.75 mg/kg/injection, schedule: Q01DX011 (sc), vehicle: steriod suspending solution) was 117 % of control, the T/C (dose: 4.5 mg/kg/injection, schedule: Q01DX011 (sc), vehicle: steriod suspending solution) was 153 % of control and the T/C (dose: 5.0 mg/kg/injection, schedule: Q01DX011 (ip), vehicle: steriod suspending solution) was 73 % of control. For the same compound, the T/C (dose: 5.0 mg/kg/injection, schedule: Q01DX011 (sc), vehicle: steriod suspending solution) was 56 % of control, the T/C (dose: 7.5 mg/kg/injection, schedule: Q01DX011 (sc), vehicle: steriod suspending solution) was 85 % of control and the T/C (dose: 9.0 mg/kg/injection, schedule: Q01DX011 (sc), vehicle: steriod suspending solution) was 54 % of control. For the same compound, the T/C (dose: 10.0 mg/kg/injection, schedule: Q01DX006 (iv), vehicle: steriod suspending solution) was 88 % of control, the T/C (dose: 10.0 mg/kg/injection, schedule: Q01DX011 (ip), vehicle: steriod suspending solution) was 50 % of control and the T/C (dose: 10.0 mg/kg/injection, schedule: Q01DX011 (sc), vehicle: steriod suspending solution) was 33 % of control. For the same compound, the T/C (dose: 20.0 mg/kg/injection, schedule: Q01DX006 (iv), vehicle: steriod suspending solution) was 32 % of control, the T/C (dose: 20.0 mg/kg/injection, schedule: Q01DX011 (ip), vehicle: steriod suspending solution) was 17 % of control and the T/C (dose: 20.0 mg/kg/injection, schedule: Q01DX011 (sc), vehicle: steriod suspending solution) was 63 % of control. The T/C (dose: 30.0 mg/kg/injection, schedule: Q01DX011 (sc), vehicle: steriod suspending solution) was 19 % of control and 28 % of control, the T/C (dose: 31.25 mg/kg/injection, schedule: Q01DX011 (sc), vehicle: steriod suspending solution) was 19 % of control and the T/C (dose: 40.0 mg/kg/injection, schedule: Q01DX006 (iv), vehicle: steriod suspending solution) was 66 % of control. The T/C (dose: 40.0 mg/kg/injection, schedule: Q01DX011 (sc), vehicle: steriod suspending solution) was 15 % of control, the T/C (dose: 45.0 mg/kg/injection, schedule: Q01DX011 (sc), vehicle: steriod suspending solution) was 27 % of control and the T/C (dose: 50.0 mg/kg/injection, schedule: Q01DX011 (sc), vehicle: steriod suspending solution) was 16 % of control. For the same compound, the T/C (dose: 62.5 mg/kg/injection, schedule: Q01DX011 (sc), vehicle: steriod suspending solution) was 21 % of control, the T/C (dose: 70.0 mg/kg/injection, schedule: Q01DX001 (sc), vehicle: steriod suspending solution) was 34 % of control and 41 % of control and the T/C (dose: 70.0 mg/kg/injection, schedule: Q07DX002 (sc), vehicle: steriod suspending solution) was 17 % of control. For the same compound, the T/C (dose: 80.0 mg/kg/injection, schedule: Q01DX006 (iv), vehicle: steriod suspending solution) was 19 % of control, the T/C (dose: 125.0 mg/kg/injection, schedule: Q01DX011 (sc), vehicle: steriod suspending solution) was 2 % of control and the T/C (dose: 140.0 mg/kg/injection, schedule: Q01DX001 (sc), vehicle: steriod suspending solution) was 23 % of control and 43 % of control. The T/C (dose: 160.0 mg/kg/injection, schedule: Q01DX006 (iv), vehicle: steriod suspending solution) was 28 % of control, the T/C (dose: 280.0 mg/kg/injection, schedule: Q01DX001 (sc), vehicle: steriod suspending solution) was 32 % of control and 46 % of control and the T/C (dose: 280.0 mg/kg/injection, schedule: Q07DX002 (sc), vehicle: steriod suspending solution) was 14 % of control.
